From paper PMC6440464 (PeerJ, 2019)
Where “and” joins values, the source holds several entries; their conditions need not be identical. Identical values can stand only once. Values belong to the compound of their own block, whether it stands above or below them.

Assay: Stability of the analytes in rat plasma QC samples at different storage conditions
Format: in vitro ADME
Conditions: for Post-preparation stability (4℃ for 24 h) Measured Conc.: extracted plasma samples in auto sampler rack; for Post-preparation stability (4℃ for 24 h) Measured Conc. / Free-thaw stability (3 free-thaw cycles) Measured Conc. / Long-term stability (-80℃ for 15 d) Measured Conc. / Short-term stability (25℃ for 12 h) Measured Conc.: n=5; for Free-thaw stability, Test Conc., AV / Free-thaw stability, Test Conc. / Post-preparation stability, Test Conc., AV / Post-preparation stability, Test Conc. / Short-term stability, Test Conc., AV / Short-term stability, Test Conc. / Long-term stability, Test Conc., AV / Long-term stability, Test Conc.: plasma; for Free-thaw stability, Test Conc., AV / Free-thaw stability, Test Conc.: 3 free-thaw cycles; for Free-thaw stability, Test Conc., AV / Post-preparation stability, Test Conc., AV / Short-term stability, Test Conc., AV / Long-term stability, Test Conc., AV: AV of 5 replicates; for Free-thaw stability, Test Conc. / Post-preparation stability, Test Conc. / Short-term stability, Test Conc. / Long-term stability, Test Conc.: single replicates NO.1-NO.5; for Post-preparation stability, Test Conc., AV / Post-preparation stability, Test Conc.: 4℃ for 24 h; for Short-term stability, Test Conc., AV / Short-term stability, Test Conc.: 25℃ for 12 h; for Long-term stability, Test Conc., AV / Long-term stability, Test Conc.: -80℃ for 15 d; for Free-thaw stability (3 free-thaw cycles) Measured Conc. / Long-term stability (-80℃ for 15 d) Measured Conc. / Short-term stability (25℃ for 12 h) Measured Conc.: rat plasma
Method: The stabilities of Qr, IQ, and QG in plasma were assessed by analyzing QC samples at different storage conditions. The stabilities of three flavonoids in plasma were studied by analyzing three concentration levels of QC samples (n = 5) at room temperature (25 °C) for 12 h, at long-term storage (−80 °C for 15 days), after three freeze (−80 °C) and thaw (room temperature) cycles, and at auto sampler rack storage (4 °C for 24 h).

[1] = high QC, nominal 8400.0 (Qr), 976.0 (IQ), 10000.0 (QG) ng/mL
[2] = low QC, nominal 65.6 (Qr), 48.8 (IQ), 100.0 (QG) ng/mL
[3] = nominal Conc. 48.80 ng/mL, listed as Isoquercitrin (IQ)
[4] = nominal Conc. 244.00 ng/mL, listed as Isoquercitrin (IQ)
[5] = nominal Conc. 976.00 ng/mL, listed as Isoquercitrin (IQ)
[6] = medium QC, nominal 525.0 (Qr), 244.0 (IQ), 1000.0 (QG) ng/mL
[7] = nominal Conc. 100.00 ng/mL, listed as Quercetin-3-O-β-D-glucuronide (QG)
[8] = nominal Conc. 1000.00 ng/mL, listed as Quercetin-3-O-β-D-glucuronide (QG)
[9] = nominal Conc. 10000.00 ng/mL, listed as Quercetin-3-O-β-D-glucuronide (QG)

SMILES: O=c1c(O[C@@H]2O[C@H](CO)[C@@H](O)[C@H](O)[C@H]2O)c(-c2ccc(O)c(O)c2)oc2cc(O)cc(O)c12 [IQ, Isoquercitrin]
Post-preparation stability (4℃ for 24 h) Measured Conc. [1]: 937.6 ± 55.4 ng/mL | Post-preparation stability (4℃ for 24 h) Measured Conc. [2]: 45.3 ± 1.4 ng/mL | Post-preparation stability (4℃ for 24 h) Measured Conc.: 255.6 ± 16.0 ng/mL | Free-thaw stability, Test Conc., AV (nominal Conc. 48.80 ng/mL): 50.35 ng/mL | Free-thaw stability, Test Conc. [3]: 49.95 ng/mL and 49.90 ng/mL and 50.70 ng/mL and 48.08 ng/mL and 53.12 ng/mL | Free-thaw stability, Test Conc., AV (nominal Conc. 244.00 ng/mL): 242.47 ng/mL | Free-thaw stability, Test Conc. [4]: 230.75 ng/mL and 211.89 ng/mL and 256.83 ng/mL and 252.00 ng/mL and 260.86 ng/mL | Free-thaw stability, Test Conc., AV (nominal Conc. 976.00 ng/mL): 1028.98 ng/mL | Free-thaw stability, Test Conc. [5]: 934.23 ng/mL and 1056.62 ng/mL and 1064.04 ng/mL and 1091.46 ng/mL and 998.55 ng/mL | Post-preparation stability, Test Conc., AV (nominal Conc. 48.80 ng/mL): 45.28 ng/mL | Post-preparation stability, Test Conc. [3]: 45.29 ng/mL and 43.89 ng/mL and 47.57 ng/mL and 44.33 ng/mL and 45.34 ng/mL | Post-preparation stability, Test Conc., AV (nominal Conc. 244.00 ng/mL): 255.64 ng/mL | Post-preparation stability, Test Conc. [4]: 246.59 ng/mL and 233.24 ng/mL and 257.98 ng/mL and 268.81 ng/mL and 271.60 ng/mL | Post-preparation stability, Test Conc., AV (nominal Conc. 976.00 ng/mL): 937.62 ng/mL | Post-preparation stability, Test Conc. [5]: 857.22 ng/mL and 1007.33 ng/mL and 922.61 ng/mL and 936.47 ng/mL and 964.48 ng/mL | Short-term stability, Test Conc., AV (nominal Conc. 48.80 ng/mL): 51.25 ng/mL | Short-term stability, Test Conc. [3]: 51.42 ng/mL and 50.11 ng/mL and 53.70 ng/mL and 49.73 ng/mL and 51.28 ng/mL | Short-term stability, Test Conc., AV (nominal Conc. 244.00 ng/mL): 228.97 ng/mL | Short-term stability, Test Conc. [4]: 224.99 ng/mL and 229.24 ng/mL and 227.58 ng/mL and 250.98 ng/mL and 212.08 ng/mL | Short-term stability, Test Conc., AV (nominal Conc. 976.00 ng/mL): 902.68 ng/mL | Short-term stability, Test Conc. [5]: 885.52 ng/mL and 865.13 ng/mL and 936.37 ng/mL and 947.50 ng/mL and 878.89 ng/mL | Long-term stability, Test Conc., AV (nominal Conc. 48.80 ng/mL): 43.53 ng/mL | Long-term stability, Test Conc. [3]: 40.64 ng/mL and 40.98 ng/mL and 46.59 ng/mL and 45.84 ng/mL and 43.59 ng/mL | Long-term stability, Test Conc., AV (nominal Conc. 244.00 ng/mL): 226.97 ng/mL | Long-term stability, Test Conc. [4]: 232.85 ng/mL and 226.55 ng/mL and 237.44 ng/mL and 224.60 ng/mL and 213.40 ng/mL | Long-term stability, Test Conc., AV (nominal Conc. 976.00 ng/mL): 947.77 ng/mL | Long-term stability, Test Conc. [5]: 1047.44 ng/mL and 988.88 ng/mL and 924.76 ng/mL and 931.40 ng/mL and 846.39 ng/mL | Free-thaw stability (3 free-thaw cycles) Measured Conc. [1]: 1029.0 ± 62.9 ng/mL | Long-term stability (-80℃ for 15 d) Measured Conc. [1]: 947.8 ± 75.3 ng/mL | Short-term stability (25℃ for 12 h) Measured Conc. [1]: 902.7 ± 36.8 ng/mL | Free-thaw stability (3 free-thaw cycles) Measured Conc. [2]: 50.4 ± 1.8 ng/mL | Long-term stability (-80℃ for 15 d) Measured Conc. [2]: 43.5 ± 2.7 ng/mL | Short-term stability (25℃ for 12 h) Measured Conc. [2]: 51.3 ± 1.6 ng/mL | Free-thaw stability (3 free-thaw cycles) Measured Conc. [6]: 242.5 ± 20.7 ng/mL | Long-term stability (-80℃ for 15 d) Measured Conc. [6]: 227.0 ± 9.1 ng/mL | Short-term stability (25℃ for 12 h) Measured Conc. [6]: 229.0 ± 14.0 ng/mL

Post-preparation stability (4℃ for 24 h) Measured Conc. [1]: 9409.6 ± 569.5 ng/mL | Post-preparation stability (4℃ for 24 h) Measured Conc. [2]: 97.2 ± 6.0 ng/mL | Post-preparation stability (4℃ for 24 h) Measured Conc.: 910.7 ± 68.0 ng/mL | Free-thaw stability, Test Conc., AV (nominal Conc. 100.00 ng/mL): 98.37 ng/mL | Free-thaw stability, Test Conc., AV (nominal Conc. 1000.00 ng/mL): 954.92 ng/mL | Free-thaw stability, Test Conc., AV (nominal Conc. 10000.00 ng/mL): 9353.20 ng/mL | Post-preparation stability, Test Conc., AV (nominal Conc. 100.00 ng/mL): 97.18 ng/mL | Post-preparation stability, Test Conc., AV (nominal Conc. 1000.00 ng/mL): 910.72 ng/mL | Post-preparation stability, Test Conc., AV (nominal Conc. 10000.00 ng/mL): 9409.60 ng/mL | Short-term stability, Test Conc., AV (nominal Conc. 100.00 ng/mL): 89.29 ng/mL | Short-term stability, Test Conc., AV (nominal Conc. 1000.00 ng/mL): 943.20 ng/mL | Short-term stability, Test Conc., AV (nominal Conc. 10000.00 ng/mL): 9334.60 ng/mL | Long-term stability, Test Conc., AV (nominal Conc. 100.00 ng/mL): 98.57 ng/mL | Long-term stability, Test Conc., AV (nominal Conc. 1000.00 ng/mL): 941.48 ng/mL | Long-term stability, Test Conc., AV (nominal Conc. 10000.00 ng/mL): 9985.00 ng/mL | Free-thaw stability (3 free-thaw cycles) Measured Conc. [1]: 9353.2 ± 620.8 ng/mL | Long-term stability (-80℃ for 15 d) Measured Conc. [1]: 9985.0 ± 971.4 ng/mL | Short-term stability (25℃ for 12 h) Measured Conc. [1]: 9334.6 ± 320.2 ng/mL | Free-thaw stability (3 free-thaw cycles) Measured Conc. [2]: 98.4 ± 7.0 ng/mL | Long-term stability (-80℃ for 15 d) Measured Conc. [2]: 98.6 ± 10.2 ng/mL | Short-term stability (25℃ for 12 h) Measured Conc. [2]: 89.3 ± 6.5 ng/mL | Free-thaw stability (3 free-thaw cycles) Measured Conc. [6]: 954.9 ± 93.5 ng/mL | Long-term stability (-80℃ for 15 d) Measured Conc. [6]: 941.5 ± 102.3 ng/mL | Short-term stability (25℃ for 12 h) Measured Conc. [6]: 943.2 ± 64.9 ng/mL
SMILES: O=C(O)[C@H]1O[C@@H](Oc2c(-c3ccc(O)c(O)c3)oc3cc(O)cc(O)c3c2=O)[C@H](O)[C@@H](O)[C@@H]1O [QG, Quercetin-3-O-β-D-glucuronide]
Free-thaw stability, Test Conc. [7]: 105.25 ng/mL and 86.98 ng/mL and 102.05 ng/mL and 100.21 ng/mL and 97.34 ng/mL | Free-thaw stability, Test Conc. [8]: 860.30 ng/mL and 851.00 ng/mL and 988.40 ng/mL and 1022.10 ng/mL and 1052.80 ng/mL | Free-thaw stability, Test Conc. [9]: 8753.00 ng/mL and 9439.00 ng/mL and 10058.00 ng/mL and 9832.00 ng/mL and 8684.00 ng/mL | Post-preparation stability, Test Conc. [7]: 105.22 ng/mL and 101.31 ng/mL and 93.07 ng/mL and 95.83 ng/mL and 90.49 ng/mL | Post-preparation stability, Test Conc. [8]: 905.70 ng/mL and 890.50 ng/mL and 1027.40 ng/mL and 853.70 ng/mL and 876.30 ng/mL | Post-preparation stability, Test Conc. [9]: 8728.00 ng/mL and 8919.00 ng/mL and 9825.00 ng/mL and 10046.00 ng/mL and 9530.00 ng/mL | Short-term stability, Test Conc. [7]: 86.17 ng/mL and 83.32 ng/mL and 97.85 ng/mL and 94.48 ng/mL and 84.64 ng/mL | Short-term stability, Test Conc. [8]: 905.00 ng/mL and 917.50 ng/mL and 1029.40 ng/mL and 991.30 ng/mL and 872.80 ng/mL | Short-term stability, Test Conc. [9]: 9717.00 ng/mL and 8935.00 ng/mL and 9106.00 ng/mL and 9353.00 ng/mL and 9562.00 ng/mL | Long-term stability, Test Conc. [7]: 87.09 ng/mL and 91.05 ng/mL and 96.73 ng/mL and 107.32 ng/mL and 110.64 ng/mL | Long-term stability, Test Conc. [8]: 839.70 ng/mL and 1104.80 ng/mL and 874.40 ng/mL and 932.10 ng/mL and 956.40 ng/mL | Long-term stability, Test Conc. [9]: 10543.00 ng/mL and 10195.00 ng/mL and 11086.00 ng/mL and 9530.00 ng/mL and 8571.00 ng/mL
